Measured values from patent EP0937734B1, “11-Acetyl-12,13-dioxabicyclo ¬8.2.1 tridecenone derivatives, process for making them and pharmaceutical compositions containing them” (Abbott Products GmbH, priority 1998, dated 1999).

Experiments:
[1] = target: T1, Motilin-Rezeptoren (Oryctolagus cuniculus, UniProt G1T803); experiment: Binding of test substances to motilin receptors (displacement of 125I-labelled motilin, crude membrane preparation from rabbit antrum); set-up: species or system Kaninchen; details: displacement of iodinated motilin (50 pM), rabbit antrum membrane fraction, 60 min at 30 °C; calculated from IC50
T1 construct: Die so erhaltene Gewebefraktion, welche als "rohe Membranzubereitung" bezeichnet wird, wird für den Test eingesetzt; from tissue; host or cells: rabbit antrum freed of mucosa, crude membrane fraction
Source text: 1. Bestimmung des Bindungsvermögens der Testsubstanzen an Motilin-Rezeptoren.
Die Affinität der Verbindungen der Formel I an Motilin-Rezeptoren wird in vitro an einer Fraktion eines Gewebehomogenats aus dem Kaninchenantrum gemessen. Bestimmt wird die Verdrängung von radioaktiv markiertem jodiertem Motilin aus der Motilin-Rezeptor-Bindung durch die Testsubstanzen.
Die Rezeptor-Bindungsstudien werden nach einer Modifikation der Methode von Borman et al. (Regulatory Peptides 15 (1986), 143-153) durchgeführt. Zur Herstellung des ^125Jodmarkierten Motilins wird Motilin auf an sich bekannte Weise, z. B. analog der von Bloom et al. (Scand. J. Gastroenterol. 11 (1976) 47 - 52) beschriebenen Methode enzymatisch unter Verwendung von Lactoperoxidase jodiert.
Zur Gewinnung der in dem Test verwendeten Gewebehomogenatfraktion aus dem Kaninchenantrum wird das von Schleimhäuten befreite Antrum zerkleinert und im 10-fachen Volumen einer kalten Homogenisierungspufferlösung (50 mM Tris-HCl-Puffer, 250 mM Sucrose, 25 mM KCl, 10 mM MgCl2, pH 7,4) mit Zusatz von Inhibitoren (1 mM Jodacetamid, 1 µM Pepstatin, 0,1 mM Methylsulfonylfluorid, 0,1 g/l Trypsininhibitor, 0,25 g/l Bacitracin) mit einem Homogenisator 15 sec. bei 1500 Umdrehungen pro Minute homogenisiert. […]

[2] = In vivo determination of the influence on gastric tone (barostat, gastric volume at constant pressure after lipid-induced relaxation); set-up: species or system Beagle-Hunden
Source text: 2. In-vivo-Bestimmung des Einflusses der Substanzen auf den Magentonus
Der Magentonus spielt eine wichtige Rolle bei der Magenentleerung. Ein erhöhter Magentonus trägt zu einer beschleunigten Magenentleerung bei.
Der Einfluß von Substanzen auf den Magentonus wird an Beagle-Hunden mit Hilfe eines Barostaten bestimmt, welcher mit einem Kunststoffbeutel im Magen des Hundes verbunden ist und die Messung von Volumen oder Druck im Magen des Hundes ermöglicht. Mit dem Barostaten wird das Magenvolumen bei konstantem Druck im Magen oder der Magendruck bei konstantem Volumen im Magen bestimmt. Bei Erhöhung des Magentonus stellt man bei einem bestimmten Druck ein verringertes Magenvolumen fest und einen erhöhten Druck bei einem bestimmten Volumen. In dem zur Untersuchung der durch die Substanzen bewirkten Erhöhung des Magentonus verwendeten Testmodell wird die durch die Substanzen verursachte Magenvolumenänderung bei konstantem Druck gemessen. Der Magen der Versuchstiere wird durch Lipideinnahme relaxiert, d. h. der Magentonus sinkt, wodurch das Magenvolumen entsprechend zunimmt. Als Maß für die den Magentonus erhöhende Wirkung der Substanzen wird die nach Substanzeinnahme durch Wiederanstieg des Magentonus eintretende Reduktion des durch Lipidgabe vergrößerten Magenvolumens in % gemessen. […]

[3] = In vivo determination of the influence on the resting tone of the lower oesophageal sphincter (pull-through manometry); set-up: species or system Beagle-Hunden
Source text: 3. In-vivo-Bestimmung des Einflusses der Substanzen auf den Ruhe-Tonus des unteren Oesophagus Sphincter.
Diese Bestimmung wird an männlichen, wachen, nüchternen Beagle-Hunden vorgenommen, denen vor Versuchsbeginn je eine Oesophagus-Fistel und eine Duodenal-Kanüle gelegt worden sind. Der Druck des unteren Oesophagus Sphincter wird mittels eines perfundierten Kathetersystems mit seitlicher Öffnung, das mit einem Druckaufnehmer und einem Recorder verbunden ist, gemessen. Der Katheter wird über die Oesophagus-Fistel in den Magen geführt und dann langsam manuell zurückgezogen (= Durchzugsmanometrie). Beim Passieren des Katheterteils mit der seitlichen Öffnung durch die Hochdruckzone des unteren Oesophagus Sphincter wird ein Peak registriert. Aus diesem Peak wird der Druck in mm Hg bestimmt.
Auf diese Weise wird zunächst als Kontrollwert der basale Druck des Oesophagus Sphincter bestimmt. Anschließend wird die Testsubstanz oral appliziert und nach 15 min. wird der Druck am unteren Oesophagus Sphincter in 2-Minuten-Intervallen über einen Zeitraum von 60 min. gemessen. Die Steigerung des Druckes nach Testsubstanzgabe im Vergleich zu dem vorbestimmten basalen Druck wird berechnet.
In diesem Test nahm der basale Tonus des Oesophagus Sphincter durch eine Dosis von 2,15 µMol/kg der Substanz des Beispiels 1 um 143 % zu. Dieser Effekt hielt während der gesamten Testdauer von 60 min. an.

T1 sequence (G1T803 1-400): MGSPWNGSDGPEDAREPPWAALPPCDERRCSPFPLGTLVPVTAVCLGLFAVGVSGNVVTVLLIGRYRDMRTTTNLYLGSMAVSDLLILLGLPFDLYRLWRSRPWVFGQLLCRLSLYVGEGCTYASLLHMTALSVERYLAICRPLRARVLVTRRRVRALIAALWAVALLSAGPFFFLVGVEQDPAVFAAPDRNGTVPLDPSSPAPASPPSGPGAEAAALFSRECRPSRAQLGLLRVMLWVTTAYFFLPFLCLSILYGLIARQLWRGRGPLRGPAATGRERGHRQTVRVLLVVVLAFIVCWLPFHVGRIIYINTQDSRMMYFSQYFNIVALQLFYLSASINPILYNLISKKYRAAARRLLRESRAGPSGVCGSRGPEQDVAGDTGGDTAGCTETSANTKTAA

| SMILES | IC50 [1] | Reduktion des nach Lipidgabe vergrößerten Magenvolumens ([2]; Beagle dogs, 2,15 µmol/kg i.d., constant pressure) | Reduktion des Magenvolumens (Lipid-induzierte Relaxierung des Magenvolumens) ([2]; Beagle dogs, 2,15 µmol/kg oral) | Duration of the effect on the tone of the Oesophagus Sphincter ([3]; 2,15 µMol/kg oral, effect lasted for the whole test duration) | Zunahme des basalen Tonus des Oesophagus Sphincter ([3]; conscious fasted male Beagle dogs, 2,15 µMol/kg oral, versus basal pressure) |
| --- | --- | --- | --- | --- | --- |
| CO[C@]1(C)C[C@H](O[C@H]2[C@H](C)[C@@H](O[C@@H]3O[C@H](C)C[C@H](N(C)C(C)C)[C@H]3O)[C@@]3(C)CC(C)=C(O3)[C@H](C)[C@H](C(C)=O)OC(=O)[C@@H]2C)O[C@@H](C)[C@@H]1O [Beispiel 1, (2R,3S,4S,5R,6R,10R,11R]-3-[(2,6-Didesoxy-3-C-methyl-3-O-methyl-α-L-ribohexopyranosyl)-oxy]-5-[(3,4,6-tridesoxy-3-(N-methyl-N-isopropylamino)-β-D-xylohexopyranosyl)-oxy]-2,4,6,8,10-pentamethyl-11-acetyl-12,13-dioxabicyclo[8.2.1]-tridec-8-en-1-on] | 9.77 nM | 59,5% | praktisch völlig verhindert | ≥ 60 min | 143% |
| CO[C@]1(C)C[C@H](O[C@H]2[C@H](C)[C@@H](O[C@@H]3O[C@H](C)C[C@H](N(C)C(C)C)[C@H]3OC(C)=O)[C@@]3(C)CC(C)=C(O3)[C@H](C)[C@H](C(C)=O)OC(=O)[C@@H]2C)O[C@@H](C)[C@@H]1O [Beispiel 2, (2R,3S,4S,5R,6R,10R,11R)-3-[(2,6-Didesoxy-3-C-methyl-3-O-methyl-α-L-ribohexopyranosyl)-oxy]-5-[(3,4,6-tridesoxy-2-O-acetyl-3-(N-methyl-N-isopropylamino)-β-D-xylohexopyranosyl)-oxy]-2,4,6,8,10-pentamethyl-11-acetyl-12,13-dioxabicyclo-[8.2.1]tridec-8-en-1-on] | 17.8 nM |  |  |  |  |
